Biological target: DGKα (Homo sapiens (Human), UniProt P23743)
Assay: Human DGKα kinase activity inhibition assay (ADP-Glo)
Assay type: biochemical
Settings: recombinant full-length human DGKα, 55 μM ATP, 7 μM 1,2-dioleoyl-sn-glycerol, read-out: IC50 values of examples in in vitro human DGKa kinase activity inhibition assays
In short: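 Recombinant full-length human DGKα (C-terminal FLAG, from insect cells) phosphorylated 1,2-dioleoyl-sn-glycerol presented in octyl-glucopyranoside micelles. ADP formed was quantified by ADP-Glo luminescence. Compounds were added from 100-fold DMSO stocks.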

Sequence of DGKα (P23743 other isoform, or with tags, fused parts or gaps): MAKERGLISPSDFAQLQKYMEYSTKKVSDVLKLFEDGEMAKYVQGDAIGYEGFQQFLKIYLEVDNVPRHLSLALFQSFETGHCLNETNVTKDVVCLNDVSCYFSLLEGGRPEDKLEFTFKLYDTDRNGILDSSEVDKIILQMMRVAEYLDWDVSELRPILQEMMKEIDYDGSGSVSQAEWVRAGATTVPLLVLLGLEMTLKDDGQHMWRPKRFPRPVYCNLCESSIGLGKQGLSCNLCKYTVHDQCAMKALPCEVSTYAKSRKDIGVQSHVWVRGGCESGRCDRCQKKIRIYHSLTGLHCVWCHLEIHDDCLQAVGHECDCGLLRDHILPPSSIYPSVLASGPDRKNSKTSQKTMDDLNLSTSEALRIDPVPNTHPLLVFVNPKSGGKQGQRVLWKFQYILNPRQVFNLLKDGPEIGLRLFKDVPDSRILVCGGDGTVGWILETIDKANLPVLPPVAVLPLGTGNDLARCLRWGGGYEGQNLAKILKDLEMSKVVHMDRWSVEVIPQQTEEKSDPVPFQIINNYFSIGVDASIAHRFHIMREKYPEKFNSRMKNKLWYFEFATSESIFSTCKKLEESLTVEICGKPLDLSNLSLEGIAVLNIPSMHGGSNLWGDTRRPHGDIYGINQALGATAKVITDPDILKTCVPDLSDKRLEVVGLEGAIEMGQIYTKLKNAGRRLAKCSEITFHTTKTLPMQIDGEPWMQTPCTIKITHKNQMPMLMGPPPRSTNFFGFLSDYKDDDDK

Row | SMILES | IC50
1 | Cn1c(=O)c(C#N)c(N2CCC(F)(c3nc4ccccc4o3)CC2)c2ccccc21 [Example 389, 4-[4-(1,3-benzoxazol-2-yl)-4-fluoropiperidin-1-yl]-1-methyl-2-oxo-1,2-dihydroquinoline-3-carbonitrile] | 3.1 nM
2 | Cn1c(=O)c(C#N)c(N2CCC(c3ccc(C(N)=O)cc3)CC2)c2ccccc21 [Example 330, 4-[1-(3-cyano-1-methyl-2-oxo-1,2-dihydroquinolin-4-yl)piperidin-4-yl]benzamide] | 217 nM
3 | Cn1c(=O)c(C#N)c(N2CCC(c3cccc(C#N)c3)CC2)c2ccccc21 [Example 327, 4-[4-(3-cyanophenyl)piperidin-1-yl]-1-methyl-2-oxo-1,2-dihydroquinoline-3-carbonitrile] | 85 nM
4 | Cc1ccc2oc(C3(C)CCN(c4c(C#N)c(=O)n(C)c5c(S(C)(=O)=O)cccc45)CC3)nc2c1 [Example 164, 8-(methanesulfonyl)-1-methyl-4-[4-methyl-4-(5-methyl-1,3-benzoxazol-2-yl)piperidin-1-yl]-2-oxo-1,2-dihydroquinoline-3-carbonitrile] | 1.1 nM
5 | Cc1cccc(-c2nnc(C3CCN(c4c(C(N)=O)c(=O)n(C)c5ccc(Br)cc45)CC3)o2)c1 [Example 526, 6-bromo-1-methyl-4-{4-[5-(3-methylphenyl)-1,3,4-oxadiazol-2-yl]piperidin-1-yl}-2-oxo-1,2-dihydroquinoline-3-carboxamide] | 27 nM
6 | Cc1ccc2oc(C3CCN(c4c(C(N)=O)c(=O)n(C)c5ccc(OCC(F)F)cc45)CC3)nc2c1 [Example 504, 6-(2,2-difluoroethoxy)-1-methyl-4-[4-(5-methyl-1,3-benzoxazol-2-yl)piperidin-1-yl]-2-oxo-1,2-dihydroquinoline-3-carboxamide] | 238 nM
7 | COc1ccc2c(N3CCC(c4nc5cc(F)c(F)cc5o4)CC3)c(C#N)c(=O)n(C)c2c1 [Example 254, 4-[4-(5,6-difluoro-1,3-benzoxazol-2-yl)piperidin-1-yl]-7-methoxy-1-methyl-2-oxo-1,2-dihydroquinoline-3-carbonitrile] | 15 nM
8 | Cc1ccc2oc(C3CCN(c4c(C#N)c(=O)n(C)c5cc(OCC(N)=O)ccc45)CC3)nc2c1 [Example 413, 2-({3-cyano-1-methyl-4-[4-(5-methyl-1,3-benzoxazol-2-yl)piperidin-1-yl]-2-oxo-1,2-dihydroquinolin-7-yl}oxy)acetamide] | 1 nM
9 | Cc1ccc2oc(C3CCN(c4c(C(N)=O)c(=O)n(C)c5cc(C)ccc45)CC3)nc2c1 [Example 313, 1,7-dimethyl-4-[4-(5-methyl-1,3-benzoxazol-2-yl)piperidin-1-yl]-2-oxo-1,2-dihydroquinoline-3-carboxamide] | 1.5 nM
10 | Cc1ccc2oc(C3CCN(c4c(C#N)c(=O)n(C)c5cc(OC6CCOCC6)ccc45)CC3)nc2c1 [Example 382, 1-methyl-4-[4-(5-methyl-1,3-benzoxazol-2-yl)piperidin-1-yl]-7-[(oxan-4-yl)oxy]-2-oxo-1,2-dihydroquinoline-3-carbonitrile] | 13 nM
11 | Cc1ccc(C2CCN(c3c(C#N)c(=O)n(C)c4ccccc34)CC2)cc1 [Example 83, 1-methyl-4-[4-(4-methylphenyl)piperidin-1-yl]-2-oxo-1,2-dihydroquinoline-3-carbonitrile] | 4.4 nM
12 | Cc1ccc2oc(C3CCN(c4c(C(N)=O)c(=O)n(C)c5ccc(OCC6CC6)cc45)CC3)nc2c1 [Example 505, 6-(cyclopropylmethoxy)-1-methyl-4-[4-(5-methyl-1,3-benzoxazol-2-yl)piperidin-1-yl]-2-oxo-1,2-dihydroquinoline-3-carboxamide] | 269 nM
13 | Cc1cc2c(N3CCC(c4nc(-c5ccccc5C)no4)CC3)c(C#N)c(=O)n(C)c2cc1NCCO [Example 559, 7-[(2-hydroxyethyl)amino]-1,6-dimethyl-4-{4-[3-(2-methylphenyl)-1,2,4-oxadiazol-5-yl]piperidin-1-yl}-2-oxo-1,2-dihydroquinoline-3-carbonitrile] | 1.7 nM
14 | Cn1c(=O)c(C#N)c(N2CCC(c3cc[nH]n3)CC2)c2ccccc21 [Example 322, 1-methyl-2-oxo-4-[4-(1H-pyrazol-3-yl)piperidin-1-yl]-1,2-dihydroquinoline-3-carbonitrile] | 239 nM
15 | Cn1c(=O)c(C#N)c(N2CCC[C@H](c3ccccc3)CC2)c2cccc(F)c21 [Example 328, 8-fluoro-1-methyl-2-oxo-4-[(4S)-4-phenylazepan-1-yl]-1,2-dihydroquinoline-3-carbonitrile] | 144 nM
16 | COCCc1ccc2nc(C3CCN(c4c(C(N)=O)c(=O)n(C)c5ccccc45)CC3)oc2c1 [Example 317, 4-{4-[6-(2-methoxyethyl)-1,3-benzoxazol-2-yl]piperidin-1-yl}-1-methyl-2-oxo-1,2-dihydroquinoline-3-carboxamide] | 17 nM
17 | Cn1c(=O)c(C#N)c(N2CCC(c3cnc4ccccc4n3)CC2)c2ccccc21 [Example 321, 1-methyl-2-oxo-4-[4-(quinoxalin-2-yl)piperidin-1-yl]-1,2-dihydroquinoline-3-carbonitrile] | 75 nM

Row | SMILES | IC50
18 | Cn1c(=O)c(C(N)=O)c(N2CCC(c3nc4ccccc4o3)CC2)c2ccc(Cl)cc21 [Example 300, 4-[4-(1,3-benzoxazol-2-yl)piperidin-1-yl]-7-chloro-1-methyl-2-oxo-1,2-dihydroquinoline-3-carboxamide] | 1.2 nM
19 | Cc1ccc2oc(C3CCN(c4c(C(N)=O)c(=O)n(C)c5ccc(C)cc45)CC3)nc2c1 [Example 194, 1,6-dimethyl-4-[4-(5-methyl-1,3-benzoxazol-2-yl)piperidin-1-yl]-2-oxo-1,2-dihydroquinoline-3-carboxamide] | 2.2 nM
20 | COc1cc2c(cc1Br)c(N1CCC(F)(c3nc4cc(C)ccc4o3)CC1)c(C#N)c(=O)n2C [Example 420, 6-bromo-4-[4-fluoro-4-(5-methyl-1,3-benzoxazol-2-yl)piperidin-1-yl]-7-methoxy-1-methyl-2-oxo-1,2-dihydroquinoline-3-carbonitrile] | 0.6 nM
21 | Cn1c(=O)c(C#N)c(N2CCC(c3ccc(C#N)cc3)CC2)c2ccccc21 [Example 86, 4-[4-(4-cyanophenyl)piperidin-1-yl]-1-methyl-2-oxo-1,2-dihydroquinoline-3-carbonitrile] | 54 nM
22 | Cn1c(=O)c(C#N)c(N2CCC(c3ccc(Oc4ccccc4)cc3)CC2)c2ccccc21 [Example 56, 1-methyl-2-oxo-4-[4-(4-phenoxyphenyl)piperidin-1-yl]-1,2-dihydroquinoline-3-carbonitrile] | 17 nM
23 | Cc1ccc2c(N3CCC(C)(c4nc5ccccc5o4)CC3)c(C#N)c(=O)n(C)c2c1 [Example 218, 4-[4-(1,3-benzoxazol-2-yl)-4-methylpiperidin-1-yl]-1,7-dimethyl-2-oxo-1,2-dihydroquinoline-3-carbonitrile] | 0.6 nM
24 | Cn1c(=O)c(C(N)=O)c(N2CCC(c3nc4ccccc4o3)CC2)c2cc(F)ccc21 [Example 299, 4-[4-(1,3-benzoxazol-2-yl)piperidin-1-yl]-6-fluoro-1-methyl-2-oxo-1,2-dihydroquinoline-3-carboxamide] | 1 nM
25 | COc1ccc(C2CCN(c3c(C#N)c(=O)n(C)c4ccc(C#N)cc34)CC2)cc1 [Example 173, 4-[4-(4-methoxyphenyl)piperidin-1-yl]-1-methyl-2-oxo-1,2-dihydroquinoline-3,6-dicarbonitrile] | 12 nM
26 | Cc1ccc2c(N3CCC(c4nc5ccccc5s4)CC3)c(C#N)c(=O)n(C)c2c1 [Example 222, 4-[4-(1,3-benzothiazol-2-yl)piperidin-1-yl]-1,7-dimethyl-2-oxo-1,2-dihydroquinoline-3-carbonitrile] | 5.2 nM
27 | Cn1c(=O)c(C(N)=O)c(N2CCC(c3nnc(-c4cccc(C(F)(F)F)c4)o3)CC2)c2cc(Br)ccc21 [Example 519] | 20 nM
28 | COc1ccccc1-c1csc(C2CCN(c3c(C#N)c(=O)n(C)c4ccccc34)CC2)n1 [Example 373, 4-{4-[4-(2-methoxyphenyl)-1,3-thiazol-2-yl]piperidin-1-yl}-1-methyl-2-oxo-1,2-dihydroquinoline-3-carbonitrile] | 9.9 nM
29 | Cn1c(=O)c(C(N)=O)c(N2CCC(C)(c3nc4ccccc4o3)CC2)c2ccc(C(F)(F)F)cc21 [Example 306, 4-[4-(1,3-benzoxazol-2-yl)-4-methylpiperidin-1-yl]-1-methyl-2-oxo-7-(trifluoromethyl)-1,2-dihydroquinoline-3-carboxamide] | 4.1 nM
30 | Cn1c(=O)c(C#N)c(N2CCC(C)(c3nc4cc(S(C)(=O)=O)ccc4o3)CC2)c2ccccc21 [Example 25, 4-{4-[5-(methanesulfonyl)-1,3-benzoxazol-2-yl]-4-methylpiperidin-1-yl}-1-methyl-2-oxo-1,2-dihydroquinoline-3-carbonitrile] | 168 nM
31 | COC1(c2cccc(Cl)c2)CCN(c2c(C#N)c(=O)n(C)c3ccccc23)CC1 [Example 336, 4-[4-(3-chlorophenyl)-4-methoxypiperidin-1-yl]-1-methyl-2-oxo-1,2-dihydroquinoline-3-carbonitrile] | 80 nM
32 | Cc1ccc2oc(C3(C)CCN(c4c(C#N)c(=O)n(C)c5c(C6COC6)cccc45)CC3)nc2c1 [Example 245, 1-methyl-4-[4-methyl-4-(5-methyl-1,3-benzoxazol-2-yl)piperidin-1-yl]-8-(oxetan-3-yl)-2-oxo-1,2-dihydroquinoline-3-carbonitrile] | 5.9 nM
33 | CNC(=O)c1c(N2CCC(c3nc4ccccc4o3)CC2)c2ccccc2n(C)c1=O [Example 447, 4-[4-(1,3-benzoxazol-2-yl)piperidin-1-yl]-N,1-dimethyl-2-oxo-1,2-dihydroquinoline-3-carboxamide] | 63 nM
34 | Cc1cc(C#N)c2cc(C3CCN(c4c(C#N)c(=O)n(C)c5ccccc45)CC3)ccc2n1 [Example 344, 6-[1-(3-cyano-1-methyl-2-oxo-1,2-dihydroquinolin-4-yl)piperidin-4-yl]-2-methylquinoline-4-carbonitrile] | 489 nM

— US11998539B2, “Substituted aminoquinolones as DGKalpha inhibitors for immune activation” (Bayer Aktiengesellschaft, priority 2019, dated 2024)
